Tests used:
[1] = xn = mol fraction of the nth substance listed; conditions: 308.15 K, 101 kPa, Liquid; for speed of sound: Sing-around technique in a fixed-path interferometer
[2] = refractive index (Na D-line) (dimensionless); xn = mol fraction of the nth substance listed; conditions: 101 kPa, Liquid, Standard Abbe refractometry

COc1ccccc1 [anisole] + CCCCCCCCCCO
[1]
Conditions	mass density [kg/m3]	speed of sound [m/s]
x1 = 0.0817	826.944	–
x1 = 0.144	832.875	–
x1 = 0.2047	839.02	–
x1 = 0.273	846.4	–
x1 = 0.3484	855.195	–
x1 = 0.4099	862.929	–
x1 = 0.4874	873.48	–
x1 = 0.544	881.832	1332.8
x1 = 0.6071	891.877	1333.6
x1 = 0.6699	902.722	1335
x1 = 0.7359	915.191	1337.6
x1 = 0.8171	932.241	1343
x1 = 0.91	954.549	1352.9
x1 = 0.9464	964.201	1357.9
x1 = 1	979.712	1366.5

refractive index, [2]
Conditions	298.15 K	303.15 K	308.15 K
x1 = 0.0817	1.43761	1.4356	1.43301
x1 = 0.144	1.44029	1.43803	1.43539
x1 = 0.2047	1.44304	1.44069	1.43799
x1 = 0.273	1.44629	1.44389	1.44125
x1 = 0.3484	1.45029	1.44799	1.44522
x1 = 0.4099	1.45394	1.45164	1.44877
x1 = 0.4874	1.45908	1.45684	1.45398
x1 = 0.544	1.46319	1.46099	1.45815
x1 = 0.6071	1.46829	1.46616	1.46323
x1 = 0.6699	1.47385	1.47181	1.46884
x1 = 0.7359	1.48043	1.47853	1.47539
x1 = 0.8171	1.48959	1.48774	1.48475
x1 = 0.91	1.50162	1.49999	1.49685
x1 = 0.9464	1.50672	1.50539	1.50231
x1 = 1	1.51495	1.51395	1.51095

Source: the NIST ThermoML archive (doi:10.1021/je100362p)
